Assay results published in the NIST ThermoML archive (doi:10.1021/je500380x).

Assay: mn = molality of the nth substance listed, in mol/kg
Details: 100 kPa, Liquid; for electrical conductivity: Alternating current cell with electrodes; for viscosity: Falling or rolling sphere viscometry; for mass density: Vibrating tube method

CCC(=O)OCCN1CCNCC1 [2-(piperazin-1-yl)ethyl propionate] + CO
Details	electrical conductivity [S/m]	mass density [kg/m3]	viscosity [mPa·s]
293.15 K, m1 = 0.05	0.128	794.44	0.613
293.15 K, m1 = 0.1001	0.211	797.52	0.632
293.15 K, m1 = 0.2006	0.339	803.64	0.675
293.15 K, m1 = 0.3003	0.432	809.65	0.72
293.15 K, m1 = 0.3995	0.506	815.7	0.771
293.15 K, m1 = 0.5005	0.566	821.73	0.828
293.15 K, m1 = 0.6006	0.617	827.94	0.89
293.15 K, m1 = 0.7007	0.657	834.12	0.954
293.15 K, m1 = 0.8007	0.688	840.22	1.033
293.15 K, m1 = 0.9008	0.712	846.35	1.118
293.15 K, m1 = 1.001	0.732	852.36	1.219
293.15 K, m1 = 1.2	0.757	864.62	1.426
293.15 K, m1 = 1.401	0.752	877.59	1.719
293.15 K, m1 = 1.6	0.737	890.02	2.09
293.15 K, m1 = 1.801	0.706	903.1	2.581
293.15 K, m1 = 2	0.656	916.07	3.261
293.15 K, m1 = 2.203	0.605	929.95	4.138
293.15 K, m1 = 2.403	0.542	942.83	5.479
293.15 K, m1 = 2.603	0.479	955.65	7.28
293.15 K, m1 = 2.803	0.409	969.71	9.916
293.15 K, m1 = 3.001	–	982.22	14.36
293.15 K, m1 = 3.006	0.342	–	–
298.15 K, m1 = 0.05	0.132	789.75	0.576
298.15 K, m1 = 0.1001	0.218	792.84	0.592
298.15 K, m1 = 0.2006	0.351	798.96	0.629
298.15 K, m1 = 0.3003	0.448	805.01	0.671
298.15 K, m1 = 0.3995	0.525	811.06	0.716
298.15 K, m1 = 0.5005	0.59	817.14	0.767
298.15 K, m1 = 0.6006	0.644	823.36	0.823
298.15 K, m1 = 0.7007	0.686	829.58	0.881
298.15 K, m1 = 0.8007	0.72	835.68	0.952
298.15 K, m1 = 0.9008	0.748	841.84	1.029
298.15 K, m1 = 1.001	0.77	847.87	1.117
298.15 K, m1 = 1.2	0.794	860.2	1.303
298.15 K, m1 = 1.401	0.797	873.21	1.562
298.15 K, m1 = 1.6	0.784	885.7	1.888
298.15 K, m1 = 1.801	0.755	898.85	2.319
298.15 K, m1 = 2	0.708	911.8	2.909
298.15 K, m1 = 2.203	0.653	925.82	3.661
298.15 K, m1 = 2.403	0.587	938.76	4.801
298.15 K, m1 = 2.603	0.518	951.62	6.312
298.15 K, m1 = 2.803	0.457	964.72	8.495
298.15 K, m1 = 3.001	–	978.3	12.13
298.15 K, m1 = 3.006	0.392	–	–
303.15 K, m1 = 0.05	0.136	785.03	0.542
303.15 K, m1 = 0.1001	0.224	788.13	0.556
303.15 K, m1 = 0.2006	0.362	794.26	0.589
303.15 K, m1 = 0.3003	0.465	800.33	0.627
303.15 K, m1 = 0.3995	0.547	806.4	0.668
303.15 K, m1 = 0.5005	0.615	812.5	0.713
303.15 K, m1 = 0.6006	0.672	818.75	0.764
303.15 K, m1 = 0.7007	0.715	824.99	0.816
303.15 K, m1 = 0.8007	0.756	831.13	0.881
303.15 K, m1 = 0.9008	0.785	837.3	0.95
303.15 K, m1 = 1.001	0.813	843.36	1.028
303.15 K, m1 = 1.2	0.839	855.75	1.194
303.15 K, m1 = 1.401	0.849	868.82	1.425
303.15 K, m1 = 1.6	0.837	881.35	1.713
303.15 K, m1 = 1.801	0.813	894.62	2.093
303.15 K, m1 = 2	0.766	907.8	2.606
303.15 K, m1 = 2.203	0.712	921.66	3.257
303.15 K, m1 = 2.403	0.648	934.65	4.233
303.15 K, m1 = 2.603	0.571	947.56	5.512
303.15 K, m1 = 2.803	0.505	960.73	7.332
303.15 K, m1 = 3.001	–	974.37	10.32
303.15 K, m1 = 3.006	0.439	–	–
308.15 K, m1 = 0.05	0.139	–	0.512
308.15 K, m1 = 0.1001	0.232	–	0.523
308.15 K, m1 = 0.2006	0.374	–	0.554
308.15 K, m1 = 0.3003	0.482	–	0.588
308.15 K, m1 = 0.3995	0.566	–	0.625
308.15 K, m1 = 0.5005	0.641	–	0.665
308.15 K, m1 = 0.6006	0.701	–	0.711
308.15 K, m1 = 0.7007	0.748	–	0.758
308.15 K, m1 = 0.8007	0.792	–	0.817
308.15 K, m1 = 0.9008	0.824	–	0.879
308.15 K, m1 = 1.001	0.858	–	–
308.15 K, m1 = 1.2	0.883	–	–
308.15 K, m1 = 1.401	0.892	–	–
308.15 K, m1 = 1.6	0.889	–	–
308.15 K, m1 = 1.801	0.862	–	–
308.15 K, m1 = 2	0.818	–	–
308.15 K, m1 = 2.203	0.766	–	–
308.15 K, m1 = 2.403	0.703	–	–
308.15 K, m1 = 2.603	0.626	–	–
308.15 K, m1 = 2.803	0.559	–	–
308.15 K, m1 = 3.006	0.483	–	–
